Data: US12006530B2, “Streptococcal proteases” (priority 2016, dated 2024)
“Also recorded” adds a separate entry of the source. Peptide text beside a SMILES is read from it. * marks the point of attachment. Cbz = O=C(OCc1ccccc1)*; CHN2 = [N-]=[N+]=C*

How the values were obtained:
[1] = tested on: IgG degradation activity in culture supernatant of S. suis strain 10; assay: Inhibitor profile of IgG degradation activity in S. suis culture supernatant, anti-IgG Western blot; assay type: biochemical, Streptococcus suis; details: for IgG cleavage product in presence of inhibitor: inhibitor 0.1-5 mM, concentrated (10×) supernatant of strain 10, porcine plasma; for IgG cleaving activity in the presence of class specific protease inhibitors: protease enriched ammonium sulfate precipitates of S. suis culture supernatant, porcine plasma
Experimental: Concentrated (10×) culture supernatant of S. suis strain 10 was incubated with porcine plasma in presence of class specific protease inhibitors. The reaction was analyzed by anti-IgG western blot under reducing conditions.
To monitor IgG cleavage activity in concentrated and fractionated culture supernatants, samples were incubated with 1% porcine plasma in PBS for 16 h at 37° C. prior to Western blot analyses.
To identify the catalytic type of the IgG protease, the IgG degradation reaction was performed in the presence of 0.1-5 mM AEBSF (Sigma), 0.1-5 mM EDTA, 50-250 μM E-64 (Sigma), 0.1-5 mM Z-LVG-CHN2 (Bachem), 0.1-5 mM Iodoacetamide (Sigma) or 1/200 to 1/50 dilution of complete protease inhibitor cocktail (Roche).
Samples for SDS-PAGE were prepared with either reducing or non-reducing sample buffer and heated to 95° C. for 5 min. 12% SDS-PAGE was either stained with Coomassie blue (Sigma), Coomassie Fluor™ Orange Protein Gel Stain (Invitrogen) or blotted to Hybond-P PVDF membrane (GE Healthcare) for western blot analyses. Membranes were blocked with 5% dry milk powder in 0.1% PBS-Tween, followed by incubation with horse-radish peroxidase conjugated antibodies. Goat anti-pig IgG-HRP (Thermo Scientific) and goat anti-porcine IgM-HRP (Thermo Scientific) was diluted 1:25′000 and goat anti-porcine IgA-HRP (Thermo Scientific) was diluted 1:12′500. Membranes were thoroughly washed with 0.1% PBS-Tween prior to development with Amersham ECL Select Western blotting detection reagent (GE Healthcare) according to manufactures instruction and pictured by LAS4000 imaging system (Fujifilm).

[2] = tested on: S. suis IgdE^ΔC; assay: Inhibitor profile of purified recombinant IgdE^ΔC, quantitative IgG degradation analysis; assay type: biochemical, Streptococcus suis; details: porcine IgG
Experimental: The time course of cleavage (A) was monitored by continuous sampling prior to Coomassie fluor orange stained SDS-PAGE under reducing conditions followed by densitometric quantification of the cleavage product. 1.67 μM porcine IgG was incubated with 0.2 μM purified rIgdE^ac. Overnight cleavage (16 h) was set as 100% relative cleavage. For the inhibitor profile (B) initial cleavage in presence of 250 μM and 2.5 μM of each inhibitor was monitored. Initial cleavage activity of the uninhibited control was set as 100% relative activity. The DMSO control correlates to 250 μM Z-LVG-CHN2. Data are presented as mean±SEM of three experiments. Differences to the uninhibited control (*) or DMSO control (□) were analyzed by Dunnett's Multiple Comparison Test with significance set at P values of <0.05(*), <0.01(**) and <0.001(*** or □□□).
For time course analyses and inhibitor profiles the IgG degradation reaction was performed with 0.25 mg/ml porcine IgG and 2 μM purified IgdE^ΔC at 37° C. in PBS uninhibited or in the presence of 2.5 μM or […] AEBSF (Sigma), EDTA, E-64 (Sigma), lodoacetamide (Sigma), or Z-LVG-CHN2 (Bachem). DMSO (Sigma) at 0.275%, corresponding to the DMSO content in 250 µM Z-LVG-CHN2, was used as a solvent control. The reactions were continuously sampled and subjected to SDS-PAGE under reducing conditions. Protein bands were detected by staining with Coomassie Fluor™ Orange Protein Gel Stain (Invitrogen). The IgG degradation product was densitometrical quantified by imaging with LAS4000 imaging system (Fujifilm) and analyzed with Image Studio Version 3.1 (LI-COR Biosciences) software. Uninhibited over-night cleavage was set as 100% relative cleavage for the time course experiment. For the inhibitor profile the initial cleavage rate was calculated from the initial increase of cleavage product (0-25% relative cleavage) and the initial cleavage rate of the uninhibited reaction was set as 100% relative activity. Experiments were at least performed in triplicates. Statistical analyses were performed using GraphPad Prism Version 5.0.

[3] = 125 fold molar excess of inhibitor, 37° C., up to 18 h

Compound | IgG cleavage product in presence of inhibitor [1] | IgG cleaving activity in the presence of class specific protease inhibitors [1] | IgG proteolytic activity of purified IgdE^ΔC in presence of inhibitor ([2]; purified recombinant IgdE^ΔC, inhibitor at 250 μM and 2.5 μM per FIG. 3) | IgG proteolytic activity of purified IgdE^ΔC in presence of inhibitor [2, 3]
O=C(O)CN(CCN(CC(=O)O)CC(=O)O)CC(=O)O [EDTA] | A cleavage product of IgG can be observed | did not affect IgG cleavage | fully active | 
CC(C)CC(NC(=O)OCc1ccccc1)C(=O)NC(C(=O)NCC(=O)C=[N+]=[N-])C(C)C (stereo not drawn) [Z-LVG-CHN2] (Cbz-Leu-Val-Gly-CHN2; configuration not given here) | no degradation product was observed | appeared to inhibit IgG degrading activity |  | no cleavage product at all could be detected; also recorded: completely inhibited
NC(=O)CI [iodoacetamide] | no degradation product was observed | appeared to inhibit IgG degrading activity |  | no cleavage product at all could be detected
